{"source": "paper PMC12396409", "about": "“Screening and hit evaluation of a microbial metabolite library against the pathogenic Plasmodium falciparum and Toxoplasma gondii parasites” (International Journal for Parasitology: Drugs and Drug …, 2025)", "key": {"[1]": {"tested_on": "T. gondii RH strain (RH-Tub-eYFP) tachyzoites", "assay": "microbe, parasite or virus in culture", "assay_type": "cell-based, Toxoplasma gondii", "settings": "72 h; for percent parasite growth at 2 µg/mL: Toxoplasma gondii"}, "[2]": {"tested_on": "P. falciparum 3D7 parasites", "assay": "P. falciparum growth inhibition assay, 2-cycle (120 h treatment), delayed-death screen and dose-response", "assay_type": "cell-based, Plasmodium falciparum", "settings": "for activity at 2 µg/mL: Plasmodium falciparum, 3D7"}, "[3]": {"tested_on": "P. falciparum 3D7 parasites", "assay": "P. falciparum growth inhibition assay, 1-cycle (72 h treatment), SYBR DNA staining (library screen at 2 μg/mL and dose-response)", "assay_type": "cell-based, Plasmodium falciparum", "settings": "for activity at 2 µg/mL: Plasmodium falciparum, 3D7"}, "[4]": {"settings": "T. gondii, parasite screen 2 μg/mL, % growth, replicate 1"}, "[5]": {"settings": "T. gondii, parasite screen 2 μg/mL, % growth, replicate 2"}, "[6]": {"settings": "P. falciparum, 120 h, parasite screen 2 μg/mL, % growth, replicate 1"}, "[7]": {"settings": "P. falciparum, 120 h, parasite screen 2 μg/mL, % growth, replicate 2"}, "[8]": {"settings": "P. falciparum, 72 h, parasite screen 2 μg/mL, % growth, replicate 1"}, "[9]": {"settings": "P. falciparum, 72 h, parasite screen 2 μg/mL, % growth, replicate 2"}, "[10]": {"settings": "T. gondii, parasite screen at 2 μg/mL, % growth, replicate 1"}, "[11]": {"settings": "T. gondii, parasite screen at 2 μg/mL, % growth, replicate 2"}, "[12]": {"settings": "P. falciparum 3D7, 120 h, parasite screen at 2 μg/mL, % growth, replicate 1"}, "[13]": {"settings": "P. falciparum 3D7, 120 h, parasite screen at 2 μg/mL, % growth, replicate 2"}, "[14]": {"settings": "P. falciparum 3D7, 72 h, parasite screen at 2 μg/mL, % growth, replicate 1"}, "[15]": {"settings": "P. falciparum 3D7, 72 h, parasite screen at 2 μg/mL, % growth, replicate 2"}, "[16]": {"settings": "T. gondii, screen at 2 μg/mL, replicate 1"}, "[17]": {"settings": "T. gondii, screen at 2 μg/mL, replicate 2"}, "[18]": {"settings": "P. falciparum, 120 h, screen at 2 μg/mL, replicate 1"}, "[19]": {"settings": "P. falciparum, 120 h, screen at 2 μg/mL, replicate 2"}, "[20]": {"settings": "P. falciparum, 72 h, screen at 2 μg/mL, replicate 1"}, "[21]": {"settings": "P. falciparum, 72 h, screen at 2 μg/mL, replicate 2"}}, "note": "Where two headings read alike, the source gives them in different places. *1 amine or outer side, *2 acyl side, *3 side chain or, on linkers, in order; H or OH if unused. Where a SMILES comes first, the peptide text is derived from it. Bridges are numbered along the chain shown (N, C = ends). Roman numbers before positions name the chains, in order. [ ]: non-standard residue; d: D form. The star is where a group is joined. Actinocin(9to1) = Cc1c2oc3c(C)ccc(C(=O)[*:1])c3nc-2c(C(=O)[*:2])c(N)c1=O; X1 = O=C1C[C@@H](C(=O)[*:2])N([*:1])C[C@H]1CS[C@@H]1CN2CCC1CC2; NMePhe(4-NMe2) = CN[C@@H](Cc1ccc(N(C)C)cc1)C(=O)O; Picolinoyl(3-OH) = O=C(c1ncccc1O)*; Phg = N[C@H](C(=O)O)c1ccccc1; NMeV = CN[C@H](C(=O)O)C(C)C; dAbu = CC[C@@H](N)C(=O)O; Sar = CNCC(=O)O", "data": [{"smiles": "CC[C@H]1NC(=O)[C@@H](NC(=O)c2ncccc2O)[C@@H](C)OC(=O)[C@H](c2ccccc2)NC(=O)[C@@H]2CC(=O)[C@H](CS[C@@H]3CN4CCC3CC4)CN2C(=O)[C@H](Cc2ccc(N(C)C)cc2)N(C)C(=O)[C@@H]2CCCN2C1=O.CS(=O)(=O)O", "note": "[Quinupristin mesylate] ({Picolinoyl(3-OH)}-T[dAbu]P[NMePhe(4-NMe2)][X1][Phg]; ester 1-C)", "values": [{"measurement": "Tg_72h_%Growth_Rep1", "setting": "[1]; [4]", "result": 87.31, "unit": "%"}, {"measurement": "Tg_72h_%Growth_Rep2", "setting": "[1]; [5]", "result": 81.75, "unit": "%"}, {"measurement": "Pf_120h_%Growth_Rep1", "setting": "[2]; [6]", "result": 64.23, "unit": "%"}, {"measurement": "Pf_120h_%Growth_Rep2", "setting": "[2]; [7]", "result": 110.37, "unit": "%"}, {"measurement": "Pf_72h_%Growth_Rep1", "setting": "[3]; [8]", "result": 73.76, "unit": "%"}, {"measurement": "Pf_72h_%Growth_Rep2", "setting": "[3]; [9]", "result": 97.23, "unit": "%"}]}, {"smiles": "CCCCCCCCCCCCCCCc1cc(O)cc(O)c1", "note": "[Adipostatin A]", "values": [{"measurement": "Tg_72h_%Growth_Rep1", "setting": "[1]; library screen at 2 μg/mL, % growth, replicate 1", "result": 103.30, "unit": "%"}, {"measurement": "Tg_72h_%Growth_Rep2", "setting": "[1]; library screen at 2 μg/mL, % growth, replicate 2", "result": 96.65, "unit": "%"}, {"measurement": "Pf_120h_%Growth_Rep1", "setting": "[2]; library screen at 2 μg/mL, 120 h, % growth, replicate 1", "result": 83.04, "unit": "%"}, {"measurement": "Pf_120h_%Growth_Rep2", "setting": "[2]; library screen at 2 μg/mL, 120 h, % growth, replicate 2", "result": 100.82, "unit": "%"}, {"measurement": "Pf_72h_%Growth_Rep1", "setting": "[3]; library screen at 2 μg/mL, 72 h, % growth, replicate 1", "result": 85.82, "unit": "%"}, {"measurement": "Pf_72h_%Growth_Rep2", "setting": "[3]; library screen at 2 μg/mL, 72 h, % growth, replicate 2", "result": 88.98, "unit": "%"}]}, {"smiles": "CCC1(C2OC(C3OC(O)(CO)C(C)CC3C)CC2C)CCC(C2(C)CCC3(CC(O)C(C)C(C(C)C(OC)C(C)C(=O)O)O3)O2)O1", "note": "(centres unmarked) [BIA-M1303]", "values": [{"measurement": "Tg_72h_%Growth_Rep1", "setting": "[1]; [10]", "result": 1.84, "unit": "%"}, {"measurement": "Tg_72h_%Growth_Rep2", "setting": "[1]; [11]", "result": 2.05, "unit": "%"}, {"measurement": "Pf_120h_%Growth_Rep1", "setting": "[2]; [12]", "result": 3.05, "unit": "%"}, {"measurement": "Pf_120h_%Growth_Rep2", "setting": "[2]; [13]", "result": 14.66, "unit": "%"}, {"measurement": "Pf_72h_%Growth_Rep1", "setting": "[3]; [14]", "result": 1.29, "unit": "%"}, {"measurement": "Pf_72h_%Growth_Rep2", "setting": "[3]; [15]", "result": -3.52, "unit": "%"}]}, {"smiles": "Cc1c2oc3c(C)ccc(C(=O)N[C@@H]4C(=O)N[C@H](C(C)C)C(=O)N5CCC[C@H]5C(=O)N(C)CC(=O)N(C)[C@@H](C(C)C)C(=O)O[C@@H]4C)c3nc-2c(C(=O)N[C@@H]2C(=O)N[C@H](C(C)C)C(=O)N3CCC[C@H]3C(=O)N(C)CC(=O)N(C)[C@@H](C(C)C)C(=O)O[C@@H]2C)c(N)c1=O", "note": "[Actinomycin D] (I: T[dV]P[Sar][NMeV] / II: T[dV]P[Sar][NMeV]; ester I:1-I:C, II:1-II:C; linker I:N-II:N via Actinocin(9to1))", "values": [{"measurement": "percent parasite growth at 2 µg/mL", "setting": "[1]; library screen at 2 μg/mL, % growth, replicate 1, read-out: Tg_72h_%Growth_Rep1", "result": 2.02, "unit": "%"}, {"measurement": "percent parasite growth at 2 µg/mL", "setting": "[1]; library screen at 2 μg/mL, % growth, replicate 2, read-out: Tg_72h_%Growth_Rep2", "result": 0.47, "unit": "%"}, {"measurement": "activity at 2 µg/mL", "setting": "[2]; library screen at 2 μg/mL, 120 h, % growth, replicate 1, read-out: Pf_120h_%Growth_Rep1", "result": 7.65, "unit": "%"}, {"measurement": "activity at 2 µg/mL", "setting": "[2]; library screen at 2 μg/mL, 120 h, % growth, replicate 2, read-out: Pf_120h_%Growth_Rep2", "result": -5.71, "unit": "%"}, {"measurement": "activity at 2 µg/mL", "setting": "[3]; library screen at 2 μg/mL, 72 h, % growth, replicate 1, read-out: Pf_72h_%Growth_Rep1", "result": 2.91, "unit": "%"}, {"measurement": "activity at 2 µg/mL", "setting": "[3]; library screen at 2 μg/mL, 72 h, % growth, replicate 2, read-out: Pf_72h_%Growth_Rep2", "result": 5.02, "unit": "%"}]}, {"smiles": "C/C=C(\\NC(=O)c1csc(-c2csc(-c3ccc4c(n3)-c3csc(n3)[C@H]([C@@H](C)O)NC(=O)c3csc(n3)[C@H](C(C)(C)O)NC(=O)c3csc(n3)/C(=C/C)NC(=O)[C@H]([C@@H](C)O)NC(=O)c3csc-4n3)n2)n1)C(=O)NC[C@@H](C)O", "note": "[Thiocillin I]", "values": [{"measurement": "Tg_72h_%Growth_Rep1", "setting": "[1]; [16]", "result": 86.81, "unit": "%"}, {"measurement": "Tg_72h_%Growth_Rep2", "setting": "[1]; [17]", "result": 86.09, "unit": "%"}, {"measurement": "Pf_120h_%Growth_Rep1", "setting": "[2]; [18]", "result": 9.85, "unit": "%"}, {"measurement": "Pf_120h_%Growth_Rep2", "setting": "[2]; [19]", "result": 7.39, "unit": "%"}, {"measurement": "IC50", "setting": "[3]; 3D7, 72 h treatment, mean ± S.D., n ≥ 3, read-out: IC50 (μM), P. falciparum", "result": "0.08 ± 0.008", "unit": "µM"}, {"measurement": "IC50", "setting": "[3]; 72 h treatment, read-out: IC50, P. falciparum", "result": "< 0.2", "unit": "µM"}, {"measurement": "Pf_72h_%Growth_Rep1", "setting": "[3]; [20]", "result": 5.41, "unit": "%"}, {"measurement": "Pf_72h_%Growth_Rep2", "setting": "[3]; [21]", "result": -2.25, "unit": "%"}]}, {"smiles": "Cc1cc(O)c2c3c1C(=O)C=C1C(C)(C)C(=O)c4c(O)cc(O)c(c4C13O)C2=O", "note": "(centres unmarked) [Resistoflavine]", "values": [{"measurement": "Tg_72h_%Growth_Rep1", "setting": "[1]; [4]", "result": 250.44, "unit": "%"}, {"measurement": "Tg_72h_%Growth_Rep2", "setting": "[1]; [5]", "result": 135.44, "unit": "%"}, {"measurement": "Pf_120h_%Growth_Rep1", "setting": "[2]; [6]", "result": 116.77, "unit": "%"}, {"measurement": "Pf_120h_%Growth_Rep2", "setting": "[2]; [7]", "result": 93.07, "unit": "%"}, {"measurement": "Pf_72h_%Growth_Rep1", "setting": "[3]; [8]", "result": 97.04, "unit": "%"}, {"measurement": "Pf_72h_%Growth_Rep2", "setting": "[3]; [9]", "result": 109.63, "unit": "%"}]}, {"smiles": "C=C1NC(=O)[C@H](C(C)C)NC1=O", "note": "[Cyclo(delta-Ala-L-Val)]", "values": [{"measurement": "Tg_72h_%Growth_Rep1", "setting": "[1]; [16]", "result": 112.17, "unit": "%"}, {"measurement": "Tg_72h_%Growth_Rep2", "setting": "[1]; [17]", "result": 87.98, "unit": "%"}, {"measurement": "Pf_120h_%Growth_Rep1", "setting": "[2]; [18]", "result": 80.27, "unit": "%"}, {"measurement": "Pf_120h_%Growth_Rep2", "setting": "[2]; [19]", "result": 78.77, "unit": "%"}, {"measurement": "Pf_72h_%Growth_Rep1", "setting": "[3]; [20]", "result": 78.49, "unit": "%"}, {"measurement": "Pf_72h_%Growth_Rep2", "setting": "[3]; [21]", "result": 81.94, "unit": "%"}]}, {"smiles": "CC=C(C)c1c(Cl)c(O)c(C)c2c1Oc1c(Cl)c(O)c(Cl)c(C)c1C(=O)O2", "note": "[BIA-N1159]", "values": [{"measurement": "Tg_72h_%Growth_Rep1", "setting": "[1]; [10]", "result": 86.78, "unit": "%"}, {"measurement": "Tg_72h_%Growth_Rep2", "setting": "[1]; [11]", "result": 84.63, "unit": "%"}, {"measurement": "Pf_120h_%Growth_Rep1", "setting": "[2]; [12]", "result": 97.37, "unit": "%"}, {"measurement": "Pf_120h_%Growth_Rep2", "setting": "[2]; [13]", "result": 135.76, "unit": "%"}, {"measurement": "Pf_72h_%Growth_Rep1", "setting": "[3]; [14]", "result": 85.21, "unit": "%"}, {"measurement": "Pf_72h_%Growth_Rep2", "setting": "[3]; [15]", "result": 97.34, "unit": "%"}]}]}
